Data: article PMC4300553, “A dynamically coupled allosteric network underlies binding cooperativity in Src kinase” (Nature Communications, 2015)
“Also recorded” adds a separate entry of the source. Like-named read-outs stand apart in the source and are kept apart here. Blank lines part the entries; values can stand above or below the molecule they belong to.

What was measured:
Src kinase domain [1] = molecular target: T1, Src kinase domain (Gallus gallus, UniProt P00523); test: Fluorescence anisotropy binding assay, substrate peptide to Src kinase domain (wild type); parameters: species or system chicken; settings: for change of Kd of substrate peptide by AMP-PNP: increasing AMP-PNP concentration; for cooperativity of peptide and AMP-PNP binding: Kd at various concentrations of AMP-PNP, 1 μM labelled peptide; for binding cooperativity of substrates and products (summary): ATP + substrate peptide, ADP + pRS1, Src kinase
T1 construct: chicken c-Src (residues 251–533); made in house
Procedure: After a 1-min equilibration, the increase in the fluorescence anisotropy of the fluorescently labelled ligand was recorded using a Fluoromax 4 (Horiba) and fitted against a quadratic binding equation in Kaleidagraph (Synergy Software) to yield the Kd. Error bars represent the s.e. of the mean of the independent runs.

Src kinase domain [2] = molecular target: T1, Src kinase domain; test: Isothermal titration calorimetry, nucleotide binding to Src kinase domain; parameters: species or system chicken; settings: for Kd: isothermal titration calorimetry, 25 °C, 20 mM Tris (pH 8.0), 250 mM NaCl, 10 mM MgCl2; for fold reduction of nucleotide Kd by phosphorylated peptide (pRs1): presence of pRs1
Procedure: (§1) Thermodynamic binding parameters for the binding of nucleotides to the Src kinase domain were obtained through isothermal titration calorimetry as published. All experiments were run in a VP-ITC instrument (Microcal) at 25 °C. Proteins were exchanged into 20 mM Tris (pH 8.0), 250 mM NaCl, 10 mM MgCl2 on PD-10 buffer exchange columns (GE Life-science) and diluted to 50–100 μM. Nucleotide stocks (Sigma) were made in buffer to final concentrations between 1 and 3 mM. The heat of binding was measured over the injection of 295 μl of drug in 10-μl steps spaced 300 s apart. Data were fit to a one binding site model using the Origin software package (Microcal). Error bars represent the s.e. of the mean of three independent runs. Representative enthalpograms are shown in Supplementary Fig. 7.
Supplementary Figure 7. Isothermal Titration Calorimetry of Src Binding to AMP-PNP and
ADP (A) Sample titration curve for AMP-PNP binding to the Src kinase domain.(B) Sample
titration curve of ADP binding to the Src kinase domain. All experiments were run in a VP-ITC
instrument (Micro-cal) at 25 °C. Proteins were exchanged into 20 mM Tris (pH 8.0), 250 mM
NaCl, 10 mM MgCl2 on PD-10 buffer exchange columns (GE Life-science), and diluted to 50–
(§2) (1 picture or pasted object on this page, not shown here)

kinase = settings: high Mg2+ concentration; cited from earlier work
From the text: Mg^2+ ions accompany ATP and ADP binding in protein kinases, mediating interactions between phosphate groups and conserved Asp and Asn residues (Asp404 and Asn391 in Src). On the other hand, in some kinase-ADP co-crystal structures, Mg^2+ ions are missing. In such cases, the Asp residue of the DFG motif (Asp404 in Src) is almost certainly protonated to prevent negative charge repulsion from the ADP phosphate group only 3.2 Å away (for example, PDB entry 1JBP (ref. [16])).

Hck kinase domain = molecular target: T2, Hck kinase domain (Homo sapiens, UniProt P08631); test: Kinase activity assay, Hck kinase domain; assay type: biochemical; settings: increasing substrate-peptide (RS1) concentration; Fig. 3b
T2 construct: human Hck (residues 166–445); made in house
T2 sequence (P08631 247-526): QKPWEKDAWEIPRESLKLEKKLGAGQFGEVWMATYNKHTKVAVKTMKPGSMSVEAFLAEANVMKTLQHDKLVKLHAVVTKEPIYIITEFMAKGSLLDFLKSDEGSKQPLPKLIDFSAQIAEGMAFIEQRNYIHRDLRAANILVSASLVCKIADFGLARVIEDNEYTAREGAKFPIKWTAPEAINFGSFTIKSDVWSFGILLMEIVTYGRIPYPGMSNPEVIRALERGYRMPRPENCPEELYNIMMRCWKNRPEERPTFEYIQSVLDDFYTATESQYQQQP
Procedure: (§3) Mutations were introduced into the chicken c-Src kinase domain by site-directed mutagenesis and verified by DNA sequencing.
(§4) For the continuous spectrophotometric assay[64], 12.5–800 μM ATP Src-optimal substrate peptide ([sequence])[34] was combined with 12.5–800 μM ATP. Concentrations of Src kinase domain used for these assays were 25 nM. The initial velocities were plotted and fit to the Michaelis–Menten equation in Kaleidagraph (Synergy Software) to determine Km.

Src T338I = settings: T338I versus wild type
Src kinase domain [3] = molecular target: T1, Src kinase domain; test: Kinase activity assay (continuous spectrophotometric), Src kinase domain; assay type: biochemical, chicken; settings: for Km: 25 nM Src kinase domain, mean ± s.e.m., triplicate
Procedure: as §3, §4

[4] = molecular target: T338I mutant Src 3-domain construct (Gallus gallus, UniProt P00523, T338I); test: Km of ATP and substrate peptide, T338I mutant Src 3-domain construct; assay type: biochemical; settings: higher Km for ATP, lower Km for substrate peptide
Src W260A = test: Kinase activity assay, Src W260A; assay type: biochemical, chicken; settings: W260A versus wild type
Procedure: as §3, §4

Ser/Thr kinase PKA = settings: cited from earlier work
From the text: The putative allosteric network discussed above may manifest itself in the form of cooperativity between ATP and substrate binding. […] Higher concentrations of AMP-PNP, a non-hydrolysable ATP ana ...

Src 3-domain construct = test: Cooperativity in Src three-domain construct (KM and KD); assay type: binding; settings: Supplementary Fig. 6
From the text: Domain Kinase. (A) The effect of ATP concentration on substrate KM for Src kinase domain and 3-domain construct. (B) The effect of ATP concentration on substrate KM for WT and T338I mutant Src 3-domain construct (C) The effect of peptide concentration on ATP KM for Src kinase domain and 3-domain construct. (D) The effect of substrate concentration on ATP KM for WT and T338I mutant Src 3-domain construct. (E) Dissociation constants Src kinase domain and 3-domain constructs at increasing AMP-PNP concentration. (F) Dissociation constants for WT and T338I mutant Src 3-domain construct. KM values were determined in a kinase activity assay. KD values for the substrate peptides were determined using fluorescence anisotropy at 1 µM labeled peptide. All experiments were performed in triplicate, and data represent mean values ± s.e.m.
as §2

Abl kinase domain = molecular target: T3, Abl kinase domain (Homo sapiens, UniProt P00519); test: Kinase activity assay, Abl kinase domain; assay type: biochemical; settings: increasing substrate-peptide (RS1) concentration; Fig. 3b
T3 construct: human c-Abl (residues 229–512); made in house
T3 sequence (P00519 229-512): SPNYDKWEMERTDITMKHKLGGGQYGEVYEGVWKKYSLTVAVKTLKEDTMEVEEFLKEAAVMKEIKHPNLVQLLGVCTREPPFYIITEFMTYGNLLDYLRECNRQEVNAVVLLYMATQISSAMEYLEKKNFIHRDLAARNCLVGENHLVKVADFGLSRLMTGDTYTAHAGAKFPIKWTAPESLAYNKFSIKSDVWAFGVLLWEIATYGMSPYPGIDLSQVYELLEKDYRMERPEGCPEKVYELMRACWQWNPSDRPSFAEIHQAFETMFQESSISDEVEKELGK
Procedure: as §3, §4

Src D404N = test: Nucleotide binding to Src D404N; parameters: species or system chicken; settings: asparagine incapable of chelating Mg2+; Supplementary Fig. 10
Procedure: as §1
Supplementary Figure 10. Mutations to the allosteric network produce biochemical phenotypes. (A) Location of residues involved in the allosteric network (colored beads). (B) Representative conformations of Src wt and D404N. As shown, Asn404 mimics protonated Asp404 by forming hydrogen bonds with Asp386, and affects the conformation of Arg388, Trp428, and other residues involved in the substrate binding. (C) The effects of D404N mutation to three key residue-residue interaction of the putative allosteric network. (D) Dissociation […]
substrate binding. […]

[5] = 100 mM Tris, pH 8.0, 10 mM MgCl2, 25 °C

Molecule: CC[C@H](C)[C@H](NC(=O)[C@H](CCC(=O)O)NC(=O)[C@H](CCC(=O)O)NC(=O)[C@H](CCC(=O)O)NC(=O)[C@H](C)N)C(=O)N[C@@H](Cc1ccc(O)cc1)C(=O)NCC(=O)N[C@@H](CCC(=O)O)C(=O)N[C@@H](Cc1ccccc1)C(=O)N[C@@H](C)C(=O)N[C@@H](CCCCN)C(=O)N[C@@H](CCCCN)C(=O)N[C@@H](CCCCN)C(=O)O [Rs1]
Kd (Src kinase domain [1]): 37 ± 7 µM
Kd (Src kinase domain [1]; 100 μM ADP, 1 μM fluorescein-labelled peptide, 100 mM Tris, pH 8.0, 10 mM MgCl2, 25 °C, mean ± s.e.m., triplicate, read-out: Kd of substrate peptide at 100 μM ADP): 17 ± 4 µM
Kd (Src kinase domain [1]; 1,000 μM ADP, 1 μM fluorescein-labelled peptide, 100 mM Tris, pH 8.0, 10 mM MgCl2, 25 °C, mean ± s.e.m., triplicate, read-out: Kd of substrate peptide at 1,000 μM ADP): 16 ± 2 µM
change of Kd of substrate peptide by AMP-PNP (Src kinase domain [1]; 1 μM fluorescein-labelled peptide, 100 mM Tris, pH 8.0, 10 mM MgCl2, 25 °C, listed as optimal substrate peptide for Src): increase the Kd up to fivefold
change of Kd of substrate peptide by AMP-PNP (Src kinase domain [1]; 1 μM fluorescein-labelled peptide, 100 mM Tris, pH 8.0, 10 mM MgCl2, 25 °C, listed as substrate peptide): increases the Kd of substrate peptide fivefold

Molecule: AEEMIYGEFAKKK [Rs2]
cooperativity of peptide and AMP-PNP binding (Src kinase domain [1]; [5]): negative cooperativity independent of their overall affinity

Kd (Src kinase domain [2]): 45 to 100 µM
fold reduction of nucleotide Kd by phosphorylated peptide (pRs1) (Src kinase domain [2]): three
Molecule: Nc1ncnc2c1ncn2[C@@H]1O[C@H](COP(=O)(O)OP(=O)(O)NP(=O)(O)O)[C@@H](O)[C@H]1O [AMP-PNP]

Molecule: Nc1ncnc2c1ncn2[C@@H]1O[C@H](COP(=O)(O)OP(=O)(O)O)[C@@H](O)[C@H]1O [ADP]
ADP release in kinase catalytic cycle (kinase): slower at high Mg^2+ concentration
binding cooperativity of substrates and products (summary) (Src kinase domain [1]): positive cooperativity
Kd (Src kinase domain [2]): 45 to 100 µM
fold reduction of nucleotide Kd by phosphorylated peptide (pRs1) (Src kinase domain [2]): twofold

Molecule: Nc1ncnc2c1ncn2[C@@H]1O[C@H](COP(=O)(O)OP(=O)(O)OP(=O)(O)O)[C@@H](O)[C@H]1O [ATP]
ATP Km versus substrate-peptide concentration, Hck (Hck kinase domain): increases with increasing substrate-peptide concentration
Km of T338I for ATP relative to wild type (Src T338I): twofold higher
Km (Src kinase domain [3]; 50 μM substrate peptide, read-out: Km for ATP at 50 μM substrate peptide): 54 ± 22 µM
Km (Src kinase domain [3]; 800 μM substrate peptide, read-out: Km for ATP at 800 μM substrate peptide): 202 ± 21 µM
ATP Km versus substrate-peptide concentration, Src (Src kinase domain [3]; increasing substrate-peptide (RS1) concentration, Fig. 3b): increases with increasing substrate-peptide concentration
Km of T338I three-domain Src relative to wild type [4]: This relationship holds for three-domain Src
binding cooperativity of substrates and products (summary) (Src kinase domain [1]): negative cooperativity
Mg2+ dependence of binding and cooperativity (Src kinase domain [1]; presence vs absence of Mg2+, ionic strength adjusted to 40 mM with NaCl, Supplementary Fig. 9): disrupts ATP binding; also recorded: requires the presence of Mg^2+
Km of W260A for ATP relative to wild type (Src W260A): two- to fivefold lower
cooperativity between ATP and substrate binding, PKA (Ser/Thr kinase PKA): positive cooperativity
cooperativity of ATP and substrate binding, three-domain construct (Src 3-domain construct): negative cooperativity is present
ATP Km versus substrate-peptide concentration, Abl (Abl kinase domain): increases with increasing substrate-peptide concentration
ATP binding to Src D404N (Src D404N): does not bind ATP favourably

Molecule: GIYWHHY [Rs3, short substrate peptide (GIYWHHY)]
cooperativity of peptide and AMP-PNP binding (Src kinase domain [1]; [5]): negative cooperativity independent of their overall affinity
